Results on 23 molecules are retold here after patent US20160194359A1, “CELL-REACTIVE, LONG-ACTING, OR TARGETED COMPSTATIN ANALOGS AND RELATED COMPOSITIONS AND METHODS” (APELLIS PHARMACEUTICALS, INC., priority 2012, published 2016).

Non-standard residues stand in square brackets, D forms with d. Trp(6-F) = N[C@@H](Cc1c[nH]c2cc(F)ccc12)C(=O)O; Bpa = N[C@@H](Cc1ccc(C(=O)c2ccccc2)cc1)C(=O)O; 1Nal = N[C@@H](Cc1cccc2ccccc12)C(=O)O; 2Nal = N[C@@H](Cc1ccc2ccccc2c1)C(=O)O

The nature of data set [1]: previous study of CA28 administered intravenously (historical data). Particulars: for Serum concentration: CA28 (IV) 200 mg/kg, unit not in table. The data set is classed as in vivo, Cynomolgus monkeys. From the text: Average values and standard deviations are readily calculated. There was notable consistency between animals.
The data points represent all PEGylated CA28 compound detected.

The test system of a further data set is complement activation. Particulars: relative to compstatin amidated at the C-terminus; published data; cited from earlier work.
Data set [2] has as its target T1, complement component C3 (human) (human, UniProt P01024 23-1663). In words: cell-based or functional assay.
In data set [3] the target is T1, complement component C3 (human). In words: cell-based or functional assay. This is another data set of the same source.
For data set [4] the target is unchanged. As to the kind of experiment: cell-based or functional assay. This is another data set of the same source.

`CC[C@H](C)[C@H](NC(C)=O)C(=O)N[C@H]1CSSC[C@@H](C(=O)N[C@H](C(N)=O)[C@@H](C)O)NC(=O)[C@H](CCCNC(=N)N)NC(=O)[C@H](Cc2cnc[nH]2)NC(=O)[C@H](C)NC(=O)CNC(=O)[C@H](Cc2c[nH]c3ccccc23)NC(=O)[C@H](CC(=O)O)NC(=O)[C@H](CCC(N)=O)NC(=O)[C@H](Cc2cn(C)c3ccccc23)NC(=O)[C@H](C(C)C)NC1=O` [CA28]: the Serum concentration in data set [1] (time 0.02 days, historical data) came out at 34; in data set [1] (time 0.042 days, historical data) it was 17; in data set [1] (time 0.167 days, historical data) it was 9; in data set [1] (time 0.333 days, historical data), 5; in data set [1] (time 1 day, historical data), 1.5. Also, the level at 4.008 h in data set [1] (cynomolgus monkey, serum, iv, 200 mg/kg, read-out: Serum Concentration) is 9000 ng/mL. Besides, the level at 0.48 h in data set [1] (cynomolgus monkey, serum, IV 200 mg/kg, time 0.02 days, historical data, HPLC, read-out: Serum Concentration) was determined as 34000 ng/mL. Moreover, the level at 1.008 h in data set [1] (cynomolgus monkey, serum, IV 200 mg/kg, time 0.042 days, historical data, HPLC, read-out: Serum Concentration) was found to be 17000 ng/mL. In data set [1] (cynomolgus monkey, serum, IV 200 mg/kg, time 0.333 days, historical data, HPLC, read-out: Serum Concentration), the level at 7.992 h worked out at 5000 ng/mL. Further, the level at 24 h in data set [1] (cynomolgus monkey, serum, IV 200 mg/kg, time 1 day, historical data, HPLC, read-out: Serum Concentration) was 1500 ng/mL. For “Ac-ICV(1-Nal)QDWGAHRCT-COOH (Ac-ICV[1Nal]QDWGAHRCT-OH; cysteine pairing not given here) [Ac V4(1-Nal)/H9A-OH]”, the Activity over compstatin in the data set with complement activation was 30 × more.

For the molecule “Ac-ICV(2-IgI)QDWGAHRCT-CONH2 (Ac-ICV[2‑IgI]QDWGAHRCT-NH2; cysteine pairing not given here) [Ac-V42IgI/H9A]”, in the data set with complement activation, the Activity over compstatin is listed as 39 × more. For the molecule “Ac-ICV(2-IgI)QDWGAHRCT-COOH (Ac-ICV[2‑IgI]QDWGAHRCT-OH; cysteine pairing not given here) [Ac-V42IgI/H9A-OH]”, the Activity over compstatin with complement activation was 37 × more. As for “Ac-ICV(2-Nal)QDWGAHRCT-CONH2 (Ac-ICV[2Nal]QDWGAHRCT-NH2; cysteine pairing not given here) [Ac-V4(2-Nal)/H9A]”, the Activity over compstatin in the data set with complement activation is 99 × more.

As for “Ac-ICV(2-Nal)QDWGAHRCT-COOH (Ac-ICV[2Nal]QDWGAHRCT-OH; cysteine pairing not given here) [Ac V4(2-Nal)/H9A-OH]”, the Activity over compstatin with complement activation is listed as 38 × more. Consider “Ac-ICV(5-methyl-W)QDWGAHRCT-CONH2 [Ac-V4(5-MeW)/H9A]”, for which the Activity over compstatin with complement activation was 67 × more.

Take “Ac-ICV(5fW)QDWGAHRCT-CONH2 [Ac-V4(5fW)/H9A]”: the Activity over compstatin with complement activation is listed as 31 × more. Turning to “Ac-ICV(Bpa)QDWGAHRCT-CONH2 (Ac-ICV[Bpa]QDWGAHRCT-NH2; not fully specified (bridges); printed as Ac-ICV(Bpa)QDWGAHRCT-CONH2; cysteine pairing not given here) [Ac-V4(Bpa)/H9A]”, the Activity over compstatin with complement activation is recorded as 86 × more. “Ac-ICV(Bpa)QDWGAHRCT-COOH (Ac-ICV[Bpa]QDWGAHRCT-OH; not fully specified (bridges); printed as Ac-ICV(Bpa)QDWGAHRCT-COOH; cysteine pairing not given here) [Ac-V4(Bpa)/H9A-OH]”: the Activity over compstatin in the data set with complement activation is given as 49 × more. Take “Ac-ICVDhtQDWGAHRCT-COOH [Ac-V4Dht/H9A-OH]”: the Activity over compstatin with complement activation is recorded as 5 × more. Take Ac-ICVVQDWGHHRCT-CONH2 [Ac-compstatin]: the Activity over compstatin with complement activation is listed as 3 × more.

For “Ac-ICVWQD(5fW)GAHRCT-CONH2 [Ac-V4W/W7(5fW)/H9A]”, in the data set with complement activation, the Activity over compstatin is 121 × more. For Ac-ICVWQDWGAHRCT-CONH2 [Ac-V4W/H9A], the Activity over compstatin in the data set with complement activation is reported as 45 × more.

As to “Ac-ICVWQDWGAHRCdT-COOH [Ac-V4W/H9A/T13dT-OH]”, the Activity over compstatin with complement activation is given as 55 × more. Ac-ICVYQDWGAHRCT-CONH2 [Ac-V4Y/H9A]: the Activity over compstatin in the data set with complement activation is listed as 14 × more. For the molecule “H-GICV(6fW)QD(6fW)GAHRCTN-COON (H-GICV[Trp(6-F)]QD[Trp(6-F)]GAHRCTN-OH; not fully specified (bridges); cysteine pairing not given here) [+G/V4(6fW)/W7(6fW)H9A+N-OH]”, the Activity over compstatin in the data set on complement activation was 126 × more.

B1: CA28-AEEAc-Lys-(PEG30k) (peptide)
peptide: ICVWQDWGAHRCTK
modifications: N-terminal acetyl; 1-methyl-tryptophan at position 4; disulfide Cys2-Cys12; AEEAc (8-amino-3,6-dioxaoctanoyl) linker after Thr13; linear 30 kD mPEG (NOF ME-300GS) on the Lys side chain; C-terminal amide
On to B1, for which, in data set [2], the “IC50, classical complement inhibition assay (C3b deposition ELISA)” value was 1260 nM.

B2: CA28-AEEAc-Lys(mPEG40K-carbonyl) (peptide)
peptide: ICVWQDWGAHRCTK
modifications: not fully specified; N-terminal acetyl; 1-methyl-tryptophan at position 4; disulfide Cys2-Cys12; AEEAc linker after Thr13; linear 40 kD mPEG (NOF ME-400TS, carbonyl) on the Lys side chain; C-terminal amide
With B2, the “IC50 (read off the curve); classical pathway complement activation (C3b deposition ELISA, human plasma)” value (shortened to “IC50 (read off the curve)”) in data set [3] was ~700 nM.

B3: CA28-AEEAc-Lys-(PEG40k) (peptide)
peptide: ICVWQDWGAHRCTK
modifications: N-terminal acetyl; 1-methyl-tryptophan at position 4; disulfide Cys2-Cys12; AEEAc linker after Thr13; linear 40 kD mPEG (NOF ME-400GS, glutaryl) on the Lys side chain; C-terminal amide
As to B3, in data set [3], the “IC50 (read off the curve)” value was ~700 nM. Also, in data set [2], the “IC50, classical complement inhibition assay (C3b deposition ELISA)” value stood at 1290 nM.

B4: CA28-2GS-BF (bifunctionalized PEG-based compstatin analog, GS type) (peptide)
peptide: ICVWQDWGAHRCTK
modifications: N-terminal acetyl; 1-methyl-tryptophan at position 4; disulfide Cys2-Cys12; AEEAc linker after Thr13; Lys side chain coupled to one end of a bifunctional linear 40 kD PEG (glutaryl, GS type); C-terminal amide
For B4, in data set [4], the “% Parent in Q1 (Type III cells with high C3d deposition); modified Ham's assay, 50 ug/ml” value is 0.01%; the “% Parent in Q2 (Type I and II cells with high C3d deposition); modified Ham's assay, 50 ug/ml” value amounted to 0.01%; the “% Parent in Q3 (Type III cells without significant C3d deposition); modified Ham's assay, 50 ug/ml” value is 61.5%; the “% Parent in Q4 (Type I and II cells without significant C3d deposition); modified Ham's assay, 50 ug/ml” value came to 38.5%.

B5: CA28-AEEAc-Lys(mPEG40K-hexanoyl) (peptide)
peptide: ICVWQDWGAHRCTK
modifications: N-terminal acetyl; 1-methyl-tryptophan at position 4; disulfide Cys2-Cys12; AEEAc linker after Thr13; linear 40 kD mPEG (NOF ME-400HS, hexanoyl) on the Lys side chain; C-terminal amide
Turning to B5, the “IC50 (read off the curve)” value in data set [3] was ~700 nM.

B6: CA28-AEEAc-Lys(mPEG40K-succinyl) (peptide)
peptide: ICVWQDWGAHRCTK
modifications: N-terminal acetyl; 1-methyl-tryptophan at position 4; disulfide Cys2-Cys12; AEEAc linker after Thr13; linear 40 kD mPEG (NOF ME-400CS, succinyl) on the Lys side chain; C-terminal amide
As for B6, in data set [3], the “IC50 (read off the curve)” value was ~700 nM.
